We go through 15 compounds from US7067491B2, “Heterocyclic compounds having elastase-inhibiting activity and intermediates thereof” (Dainippon Pharmaceutical Co., Ltd., priority 2002, dated 2006).

As a reminder, the IC50 is the concentration that inhibits the measured activity by half. The low end stands for inhibition by little substance, the high end for a need for much substance. The ED50 is the dose at which the effect has come halfway, by size or by number of responders.

One assay has as its target T1, human neutrophil elastase (Homo sapiens, UniProt P08246).
T1 construct: purchased Elastine Product Co., Inc
T1 sequence (P08246 30-267): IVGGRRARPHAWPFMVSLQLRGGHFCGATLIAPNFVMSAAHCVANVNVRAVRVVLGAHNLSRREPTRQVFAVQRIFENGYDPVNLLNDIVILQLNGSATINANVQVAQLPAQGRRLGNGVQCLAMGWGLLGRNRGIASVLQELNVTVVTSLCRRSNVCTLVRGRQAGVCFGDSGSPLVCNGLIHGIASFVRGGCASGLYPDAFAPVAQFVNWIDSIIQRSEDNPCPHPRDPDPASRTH
The assay is described as follows: Inhibitory activity on human neutrophil elastase (HNE) in vitro. Conditions: human neutrophil elastase 0.2 U/ml, substrate MeO-Suc-Ala-Ala-Pro-Val-pNA 0.5 mM, 37° C., pH 7.5. It counts as biochemical. The method, then:
Experiment 1: Inhibitory Activity on Human Neutrophil Elastase (HNE)
The inhibitory activity of the compound of the present invention in vitro on human neutrophil elastase was examined by this experiment.
To 100 mM of HEPES {[N-(2-hydroxyethyl)piperazine-N′-(2-ethanesulfonic acid)], pH 7.5}buffer solution containing 1M NaCl and 0.001% Brij-35 (polyoxyethylene lauryl ether) were added human neutrophil elastase (final concentration: 0.2 U/ml, Elastine Product Co., Inc.) and the compound of the present invention (dissolved in 10% dimethyl sulfoxide; final concentration: 10^−10˜3×10^−3 M). The mixture was pre-incubated for 3 minutes at 37° C. Thereto was added MeO-Suc-Ala-Ala-Pro-Val-pNA (methoxysuccinyl-alanyl-alanyl-prolyl-valyl-p-nitroanilide (Sigma Chemical Co.)) as a substrate to give the final concentration of 0.5 mM, and the reaction was initiated. Under this condition, the producing rate of the reaction product, p-nitroanilide (pNA) at 37° C. was estimated by measuring the absorbance at 404 nm for 3 minutes.
The inhibitory activity of the compound of the present invention against human neutrophil elastase (HNE) is calculated according to the following formula.
The concentration of the compound of the present invention to be required to achieve 50% HNE inhibition (i.e., IC50) was calculated based on the concentration-inhibitory rate curve of the compound of the present invention.
As a comparative compound, N-[(1S)-2-((2S)-2-{N-[(1S)-3,3,3-trifluoro-1-(methylethyl)-2-oxopropyl]carbamoyl}pyrrolidinyl)-1-(methylethyl)-2-oxoethyl](imidazol-4-yl)carboxamide was used, and the same assay was carried out. The planar structure of this compound was the same as one of compound (22) disclosed in J. Med. Chem., 1997, 40, 1876–1885.
On to `Cc1nn(-c2ccccc2)c(C)c1C(=O)N[C@H](C(=O)N1CCC[C@H]1C(=O)N[C@H](C(=O)C(F)(F)F)C(C)C)C(C)C` [Example 34, N-[(1S)-2-((2S)-2-{N-[(1S)-3,3,3-trifluoro-1-(methylethyl)-2-oxopropyl]carbamoyl}pyrrolidinyl)-1-(methylethyl)-2-oxoethyl]-(3,5-dimethyl-1-phenylpyrazol-4-yl)carboxamide], for which the midpoint of inhibition, the IC50, lay at 9.8 nM.

Regarding `Cc1nocc1C(=O)N[C@H](C(=O)N1CCC[C@H]1C(=O)N[C@H](C(=O)C(F)(F)F)C(C)C)C(C)C` [Example 21, N-[(1S)-2-((2S)-2-{N-[(1S)-3,3,3-trifluoro-1-(methylethyl)-2-oxopropyl]carbamoyl}pyrrolidinyl)-1-(methylethyl)-2-oxoethyl]-(3-methylisoxazol-4-yl)carboxamide], the IC50 stood at 11 nM.

Take `CCc1noc(C)c1C(=O)N[C@H](C(=O)N1CCC[C@H]1C(=O)N[C@H](C(=O)C(F)(F)F)C(C)C)C(C)C` [Example 4, N-[(1S)-2-((2S)-2-{N-[(1S)-3,3,3-trifluoro-1-(methylethyl)-2-oxopropyl]carbamoyl}pyrrolidinyl)-1-(methylethyl)-2-oxoethyl]-(3-ethyl-5-methylisoxazol-4-yl)carboxamide]: the half-maximal inhibitory concentration (IC50) turned out to be 17 nM. Take `CC(C)[C@H](NC(=O)c1ccc2snnc2c1)C(=O)N1CCC[C@H]1C(=O)N[C@H](C(=O)C(F)(F)F)C(C)C` [Example 14, N-[(1S)-2-((2S)-2-{N-[(1S)-3,3,3-trifluoro-1-(methylethyl)-2-oxopropyl]carbamoyl}pyrrolidinyl)-1-(methylethyl)-2-oxoethyl](benzo[d]1,2,3-thiadiazol-5-yl)carboxamide]: 12 nM corresponded to half-maximal inhibition (IC50). `Cc1c(C(=O)N[C@H](C(=O)N2CCC[C@H]2C(=O)N[C@H](C(=O)C(F)(F)F)C(C)C)C(C)C)cnn1C(C)(C)C` [Example 32, N-[(1S)-2-((2S)-2-{N-[(1S)-3,3,3-trifluoro-1-(methylethyl)-2-oxopropyl]carbamoyl}pyrrolidinyl)-1-(methylethyl)-2-oxoethyl]-(1-tert-butyl-5-methylpyrazol-4-yl)carboxamide] gave an IC50 of 8.5 nM. Regarding `Cc1ccc(-n2ncc(C(=O)N[C@H](C(=O)N3CCC[C@H]3C(=O)N[C@H](C(=O)C(F)(F)F)C(C)C)C(C)C)c2C)cc1` [Example 39, N-[(1S)-2-((2S)-2-{N-[(1S)-3,3,3-trifluoro-1-(methylethyl)-2-oxopropyl]carbamoyl}pyrrolidinyl)-1-(methylethyl)-2-oxoethyl]-[5-methyl-1-(4-methylphenyl)pyrazol-4-yl]carboxamide], the IC50 is 10 nM. The same measure, in the same setting: then `CC(C)[C@H](NC(=O)c1cc(C(C)(C)C)no1)C(=O)N1CCC[C@H]1C(=O)N[C@H](C(=O)C(F)(F)F)C(C)C` [Example 23, N-[(1S)-2-((2S)-2-{N-[(1S)-3,3,3-trifluoro-1-(methylethyl)-2-oxopropyl]carbamoyl}pyrrolidinyl)-1-(methylethyl)-2-oxoethyl]-(3-tert-butylisoxazol-5-yl)carboxamide], with 15 nM; and `Cc1c(C(=O)N[C@H](C(=O)N2CCC[C@H]2C(=O)N[C@H](C(=O)C(F)(F)F)C(C)C)C(C)C)cnn1-c1ccc(F)cc1` [Example 37, N-[(1S)-2-((2S)-2-{N-[(1S)-3,3,3-trifluoro-1-(methylethyl)-2-oxopropyl]carbamoyl}pyrrolidinyl)-1-(methylethyl)-2-oxoethyl]-[1-(4-fluorophenyl)-5-methylpyrazol-4-yl]carboxamide], with 9.1 nM; and `Cc1c(C(=O)N[C@H](C(=O)N2CCC[C@H]2C(=O)N[C@H](C(=O)C(F)(F)F)C(C)C)C(C)C)cnn1-c1cccc(F)c1` [Example 46, N-[(1S)-2-((2S)-2-{N-[(1S)-3,3,3-trifluoro-1-(methylethyl)-2-oxopropyl]carbamoyl}pyrrolidinyl)-1-(methylethyl)-2-oxoethyl]-[1-(3-fluorophenyl)-5-methylpyrazol-4-yl]carboxamide], with 8.1 nM. For `CC(C)[C@H](NC(=O)c1cc(-c2ccccc2)on1)C(=O)N1CCC[C@H]1C(=O)N[C@H](C(=O)C(F)(F)F)C(C)C` [Example 9, N-[(1S)-2-((2S)-2-(N-[(1S)-3,3,3-trifluoro-1-(methylethyl)-2-oxopropyl]carbamoyl}pyrrolidinyl)-1-(methylethyl)-2-oxoethyl]-(5-phenylisoxazol-3-yl)carboxamide], it took 9.2 nM to reach half-maximal inhibition (IC50). `Cc1nsc(C)c1C(=O)N[C@H](C(=O)N1CCC[C@H]1C(=O)N[C@H](C(=O)C(F)(F)F)C(C)C)C(C)C` [Example 5, N-[(1S)-2-((2S)-2-{N-[(1S)-3,3,3-trifluoro-1-(methylethyl)-2-oxopropyl]carbamoyl}pyrrolidinyl)-1-(methylethyl)-2-oxoethyl]-(3,5-dimethylisothiazol-4-yl)carboxamide] registered an IC50 of 22 nM. On the same count and under the same terms, with `CC(C)[C@H](NC(=O)c1ccc2c(c1)nnn2C(C)C)C(=O)N1CCC[C@H]1C(=O)N[C@H](C(=O)C(F)(F)F)C(C)C` [Example 13, N-[(1S)-2-((2S)-2-{N-[(1S)-3,3,3-trifluoro-1-(methylethyl)-2-oxopropyl]carbamoyl}pyrrolidinyl)-1-(methylethyl)-2-oxoethyl]-[1-(methylethyl)benzotriazol-5-yl]carboxamide] the figure was 6.3 nM. The same measure, in the same setting: with `Cc1ccc2onc(C(=O)N[C@H](C(=O)N3CCC[C@H]3C(=O)N[C@H](C(=O)C(F)(F)F)C(C)C)C(C)C)c2c1` [Example 18, N-[(1S)-2-((2S)-2-{N-[(1S)-3,3,3-trifluoro-1-(methylethyl)-2-oxopropyl]carbamoyl}pyrrolidinyl)-1-(methylethyl)-2-oxoethyl]-(5-methylbenzo[d]isoxazol-3-yl)carboxamide] the figure was 12 nM. With `CC(C)[C@H](NC(=O)c1cc(-c2ccccc2)no1)C(=O)N1CCC[C@H]1C(=O)N[C@H](C(=O)C(F)(F)F)C(C)C` [Example 24, N-[(1S)-2-((2S)-2-{N-[(1S)-3,3,3-trifluoro-1-(methylethyl)-2-oxopropyl]carbamoyl}pyrrolidinyl)-1-(methylethyl)-2-oxoethyl]-(3-phenylisoxazol-5-yl)carboxamide], it took 15 nM to reach half-maximal inhibition (IC50). Turning to `CC(C)[C@H](NC(=O)c1cnn(-c2ccccc2)c1)C(=O)N1CCC[C@H]1C(=O)N[C@H](C(=O)C(F)(F)F)C(C)C` [Example 33, N-[(1S)-2-((2S)-2-{N-[(1S)-3,3,3-trifluoro-1-(methylethyl)-2-oxopropyl]carbamoyl}pyrrolidinyl)-1-(methylethyl)-2-oxoethyl]-(1-phenylpyrazol-4-yl)carboxamide], the IC50 was found to be 12 nM.

For the next assay, the system named is pulmonary hemorrhage induced by human neutrophil elastase (HNE). In words: Inhibitory activity on pulmonary hemorrhage induced by human neutrophil elastase (HNE). It is filed as in vivo. Conditions: Homo sapiens, Neutrophil, po; hamster, orally administered 30 minutes prior to intratracheal HNE; hemoglobin in bronchoalveolar lavage fluid after 1 hour. The text has this: Experiment 3: Inhibitory Activity on Pulmonary Hemorrhage Induced by Human Neutrophil Elastase (HNE)
This experiment tested on in vivo efficacy of the compound of the present invention. When human neutrophil elastase is intratracheally administered to a hamster, the pulmonary hemorrhage is induced. A definite time later after administration of the elastase, in the bronchoalveolar lavage fluid by washing lung via trachea, hemoglobin is detected.
Hamsters (Syrian strain, 7–10 weeks old male) were divided into groups consisting of 3 to 6, and each group was treated as follows:
(A) A Group to which the Compound of the Present Invention was not Administered (Disease Control):
Physiological saline solution (0.2 ml) in which 25 unit of human neutrophil elastase (Elastin Product Co., Inc.) was dissolved was intratracheally administered to a hamster to induce the pulmonary hemorrhage. One hour later after administration of elastase, the hamsters were sacrificed by exsanquination, and alveoli were transtracheally washed twice with physiological saline (2.5 ml), and the hemoglobin concentration in the bronchoalveolar lavage fluid (5 ml) was determined by measuring the absorbance at 414 nm.
(B) A Group to which the Compound of the Present Invention was Administered:
A fixed amount of the compound of the present invention was dissolved in dimethyl sulfoxide (DMSO), and thereto was added 0.5% tragacanth gum to prepare a suspension. The suspension was orally administered to a hamster, 30 minutes prior to the administration of human neutrophil elastase (HNE) (final concentration of DMSO, 1%), and then, human neutrophil elastase was administered in the same manner as the above method (A). After 1 hour, the concentration of hemoglobin in the bronchoalveolar lavage fluid was determined in the same manner as the above method (A).
The hemorrhage inhibition activity of the compound of the present invention is represented as the hemorrhage inhibiting rate in the following formula.
The dose of the compound of the present invention to be required to achieve 50% inhibition of pulmonary hemorrhage (i.e., ED50) was calculated based on the administration dose-hemorrhage inhibiting rate curve.
As a comparative example, the same experiment was also carried out on a comparative compound used in Experiment 1.
Some of the compounds of the present invention were compared with the comparative compound on the hemorrhage inhibitory rate at the dose of 3 mg/kg.
Regarding `CCc1noc(C)c1C(=O)N[C@H](C(=O)N1CCC[C@H]1C(=O)N[C@H](C(=O)C(F)(F)F)C(C)C)C(C)C` [Example 4, N-[(1S)-2-((2S)-2-{N-[(1S)-3,3,3-trifluoro-1-(methylethyl)-2-oxopropyl]carbamoyl}pyrrolidinyl)-1-(methylethyl)-2-oxoethyl]-(3-ethyl-5-methylisoxazol-4-yl)carboxamide], the ED50 was determined as 2.5 mg/kg.
